Target: T1, AMPK (A2/B2/G1) (Homo sapiens, UniProt P54646)
T1 construct: purchased Thermo Fisher Scientific (Life Technologies) SelectScreen
Assay: SelectScreen LanthaScreen
Format: binding
Settings: read-out: % displacement
Summary of the method: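 Percent values come from Thermo SelectScreen profiling of NU5455, combining activity and binding assays. CSF1R was run in Z'LYTE format at Km app ATP, and CAMK1 in Adapta format with ATP listed at 10.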

T1 sequence (P54646 whole entry): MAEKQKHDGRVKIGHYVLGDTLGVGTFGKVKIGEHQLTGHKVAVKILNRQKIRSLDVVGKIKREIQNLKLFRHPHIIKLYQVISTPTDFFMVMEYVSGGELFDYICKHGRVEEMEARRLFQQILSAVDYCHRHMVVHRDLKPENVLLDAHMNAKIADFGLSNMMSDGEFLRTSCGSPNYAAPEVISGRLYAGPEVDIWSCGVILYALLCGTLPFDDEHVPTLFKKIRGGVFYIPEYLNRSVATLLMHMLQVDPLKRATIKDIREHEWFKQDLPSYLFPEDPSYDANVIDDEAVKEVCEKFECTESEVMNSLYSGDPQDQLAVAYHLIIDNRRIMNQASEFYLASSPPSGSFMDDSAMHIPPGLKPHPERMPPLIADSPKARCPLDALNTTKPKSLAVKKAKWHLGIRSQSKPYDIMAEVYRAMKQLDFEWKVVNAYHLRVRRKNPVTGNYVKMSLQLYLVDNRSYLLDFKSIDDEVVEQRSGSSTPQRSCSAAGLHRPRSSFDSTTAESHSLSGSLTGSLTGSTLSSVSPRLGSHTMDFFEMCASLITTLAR
T1 sequence (O43741 whole entry partner): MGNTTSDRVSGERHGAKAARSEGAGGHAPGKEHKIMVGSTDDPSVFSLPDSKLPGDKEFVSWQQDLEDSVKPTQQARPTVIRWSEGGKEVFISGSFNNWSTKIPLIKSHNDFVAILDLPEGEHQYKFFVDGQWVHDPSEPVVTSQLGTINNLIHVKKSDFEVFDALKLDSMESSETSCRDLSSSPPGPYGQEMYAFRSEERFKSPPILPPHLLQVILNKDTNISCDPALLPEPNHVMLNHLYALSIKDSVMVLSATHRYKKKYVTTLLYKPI
T1 sequence (P54619 whole entry partner): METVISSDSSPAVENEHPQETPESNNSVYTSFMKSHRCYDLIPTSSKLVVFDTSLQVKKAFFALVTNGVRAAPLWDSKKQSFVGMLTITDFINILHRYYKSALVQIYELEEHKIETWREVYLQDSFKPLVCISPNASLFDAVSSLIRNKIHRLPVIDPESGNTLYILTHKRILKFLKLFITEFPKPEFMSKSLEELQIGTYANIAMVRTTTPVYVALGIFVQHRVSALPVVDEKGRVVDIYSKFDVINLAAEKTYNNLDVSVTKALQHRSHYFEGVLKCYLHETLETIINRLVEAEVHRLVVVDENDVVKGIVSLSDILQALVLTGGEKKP

## CN(C(=O)CN1CCOCC1)c1ccc2sc3c(-c4cccc5c(=O)cc(N6CC7CCC(C6)O7)oc45)cccc3c2c1 [NU5455]
  inhibition at 1 µM: -2.3%

— publication PMC6934184, “Selective DNA-PKcs inhibition extends the therapeutic index of localized radiotherapy and chemotherapy” (The Journal of Clinical Investigation, 2019)
